Measurements reported in patent US20240400549A1, “COMPOUNDS AND THEIR USES FOR TREATING NEURODEGENERATIVE DISEASE” (Academia Sinica, priority 2021, published 2024).

Assays:
YFP—C-TDP-43 aggregates = target: T1, YFP—C-TDP-43 aggregates (Homo sapiens, UniProt Q13148); test: YFP-C-TDP-43 aggregates in transgenic C. elegans (confocal imaging); format: in vivo; details: 5 μM I-1b; compared to DMSO control or MG132-treated group
T1 construct: IW33 [Psnb-l:C-TDP-43219-414-YFP (iwIs22)]; expressed in transfected cells; host or cells: transgenic C. elegans strain IW33 (pan-neuronal snb-1 promoter)
T1 sequence (Q13148 219-414 limits assumed): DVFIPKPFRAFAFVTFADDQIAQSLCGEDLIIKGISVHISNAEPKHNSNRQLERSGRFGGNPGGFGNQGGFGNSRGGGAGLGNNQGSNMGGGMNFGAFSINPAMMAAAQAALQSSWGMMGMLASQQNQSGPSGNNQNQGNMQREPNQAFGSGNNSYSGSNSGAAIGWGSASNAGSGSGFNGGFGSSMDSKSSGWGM
Experimental: The YFP—C-TDP-43 transgenic strains of C. elegans generated in this study were IW33 [Psnb-l:C-TDP-43219-414-YFP (iwIs22)]. The strains of nematodes were maintained with standard procedure and grown at 20° C. as previously described (Zhang, T. et al. Hum. Mol. Genet. 2011, 20 (10), 1952). For all assays, the transgenic young two-day (80 hours) adults were used. For larvae synchronization, the eggs were isolated by lysing gravid adult worms with freshly prepared bleaching solution (0.5 mL 5 M NaOH with 1 mL bleach) and incubated in S buffer (recipe) for overnight. For drug treatments, compound I-1b and/or DMSO were solely or along with MG132 applied to fresh NGM plates prior to installing the synchronized C. elegans. The body bends of the corresponding treatment in a duration of 30 seconds of the various strains were documented through SMZ800N stereomicroscope equipped with a CCD camera (Nikon). A body bend was counted as the head of C. elegans travels across the mid-body in 1×PBS buffer. Then, the bending videos of C. elegans were analyzed by ImageJ with the wrMTrck plugin (Nussbaum-Krammer, C. I. et al. J. Vis. Exp. 2015, (95), 52321). […]
As YFP—C-TDP-43 readily forms cytosolic aggregates in nervous system, the YFP—C-TDP-43 aggregates both in the neuron processes and neuron bodies of the ventral cord were monitored. […]

[1] = target: T2, endogenous TDP-43 protein (FL-TDP-43) (Mus musculus, UniProt Q921F2); test: Level of endogenous TDP-43 protein (FL-TDP-43) in Neuro-2a cells; format: cell-based; details: mock control 0.91±0.07
T2 construct: the level of endogenous TDP-43 protein (FL-TDP-43); endogenous in cells; host or cells: Neuro-2a (mouse neuroblastoma), also transfected with eGFP-C-TDP-43
T2 sequence (Q921F2 whole entry): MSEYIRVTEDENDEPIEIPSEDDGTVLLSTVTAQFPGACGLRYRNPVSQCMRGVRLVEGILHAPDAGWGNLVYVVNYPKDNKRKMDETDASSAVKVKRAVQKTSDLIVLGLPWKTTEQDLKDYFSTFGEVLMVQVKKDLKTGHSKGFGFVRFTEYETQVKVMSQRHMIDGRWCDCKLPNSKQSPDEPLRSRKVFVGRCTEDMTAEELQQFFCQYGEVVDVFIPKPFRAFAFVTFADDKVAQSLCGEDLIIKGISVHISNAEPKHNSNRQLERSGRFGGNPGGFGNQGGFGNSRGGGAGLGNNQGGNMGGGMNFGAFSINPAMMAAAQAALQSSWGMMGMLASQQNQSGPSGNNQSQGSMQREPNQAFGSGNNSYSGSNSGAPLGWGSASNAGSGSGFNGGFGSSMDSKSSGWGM
Experimental: Mouse neuroblastoma cell line (Neuro-2a) were cultured in Dulbecco's modified Eagle's medium (DMEM; Gibco) containing 2×10^−3 M glutamine, 10% heat inactivated fetal bovine serum (FBS), and 100 U mL^−1 penicillin-streptomycin (Gibco) at 37° C. in a humidified incubator containing 5% CO2. Alternatively, Neuro-2a cells were cultured in Dulbecco's modified Eagle's medium (DMEM; Invitrogen, Carlsbad, CA, USA) supplemented with 10% heat-inactivated FBS. The cells were incubated in a humidified incubator at 37° C. with 10% CO2. Transfection was performed using T-Pro NTR II (Ji-Feng Biotechnology, Taiwan) following the manufacturer's protocol.
Neuro-2a cells were seeded in a 6-well plate at a concentration of 2×10^5 cells/well and incubated overnight. Once the cells were attached, Neuro-2a cells were transfected with the eGFP-C-TDP-43 plasmid (2.2 μg) using Turbofect transfection reagent (Invitrogen) and treated with or without 5 μM test compound after 2 h transfection. After incubation for another 22 h, the transfected cells were harvested by RIPA buffer containing protease inhibitor (Roche) and sonicated on ice for 10 seconds. […] Aggregated eGFP-C-TDP-43 protein trapped by the CA membranes was determined by immunoblotting. […]
Proteins were separated using 12% Tris-glycine SDS-PAGE. […] The signals were visualized with luminescence (iBright™ FL1000 instrument, Invitrogen). […]

Neuro-2a cells = test: Cytotoxicity of compounds in Neuro-2a cells; format: cell-based, mouse; details: 5 μM concentration
[2] = system: C-TDP-43 expressed Neuro-2a cells; test: AlamarBlue cell viability in C-TDP-43 expressed Neuro-2a cells; format: cell-based, mouse; details: 5 μM; eGFP-C-TDP-43 overexpressing Neuro-2a cells; mock 0.43±0.04 vs blank control 1±0.03
Experimental: Neuro-2a cells were seeded in a 24-well plate at a concentration of 8×10^4 cells/well and incubated overnight. The attached Neuro-2a cells were then transfected with the eGFP-C-TDP-43 plasmid (1.1 μg) using TurboFect™ transfection reagent (Invitrogen) according to manufacturer's recommendations, and treated with or without 5 μM test compound after 2 h transfection. The cell viability indicator, AlamarBlue (Invitrogen), was added after 42 h of incubation, and the mixture was incubated for another 6 h. […] conditional medium was transferred to a 96-well plate, and cell viability was determined by the increased fluorescence intensity (λex=560 nm, λem=590 nm).
In this example, whether the compounds of formula (I) or (II) could relieve C-TDP-43-mediated cytotoxicity was examined.

## CN(C)c1ccc(-c2nc3ccc(OCCOCCOCCNc4cccc5c4C(=O)N(C4CCC(=O)NC4=O)C5=O)cc3s2)cc1 (stereo not shown) [I-1b, 4-((2-(2-(2-((2-(4-(dimethylamino)phenyl)benzo[d]thiazol-6-yl)oxy)ethoxy)ethoxy)ethyl)amino)-2-(2,6-dioxopiperidin-3-yl)isoindoline-1,3-dione]
YFP—C-TDP-43 aggregates
  YFP—C-TDP-43 aggregates in neuron processes and neuron bodies of the ventral cord: fewer aggregates with reduced fluorescence intensity
[1]
  level of endogenous TDP-43 protein (FL-TDP-43): 1.11±0.14
Neuro-2a cells
  cytotoxicity comparing to mock group of Neuro-2a cells: neglectable cytotoxicity
[2]
  cell viability: 0.56±0.04
